Data on one substance can be found in US20200023001A1, “GlycoFix (Structurally And Functionally Repaired Endothelial Glycocalyx)” (Northeastern University, priority 2018, published 2020).

Test [1] deals with heparan sulfate (HS) of RFPEC glycocalyx. Kind of test: HS expression (coverage) in RFPEC glycocalyx by immunofluorescence confocal microscopy (Example 1). In kind it is cell-based, rat. Here is the method: (§1) Cell Culture. Rat fat pad ECs (RFPEC) at passages 20 to 39 were offspring of cells isolated from rat epididymal fat pad and provided by Dr. Mia Thi of Albert Einstein College of Medicine (Bronx, N.Y.). […] The RFPECs are immortalized, making it possible to use late passages. RFPEC were seeded on 12-14-mm diameter and 0.13-0.17-mm thick glass coverslips at a seeding density of 15,000-20,000 cells/cm^2. Cells were cultured in Dulbecco's Modified Eagle Medium (DMEM, Invitrogen, USA) with 1% penicillin-streptomycin (PS) and 10% fetal bovine serum (FBS, Gibco Life Technologies). Cells were maintained in humidity at 37° C. and 5% CO2. RFPECs reached full confluence in 3 days.
(§2) Cultured RFPECs produce thick and robust GCX in this time period. At 3 days post-seeding the RFPECs' culture medium was supplemented with 1% BSA in place of FBS to stabilize the GCX during preservation and immunolabeling (described below). For enzyme treatment experiments, 25 micro-international units per milliliter (μIU/ml) of heparinase III (Hep III; IBEX, Canada) were added to BSA-containing culture media for 2 hours to degrade HS from the GCX [46]. HepIII was washed out, and the wash-out was followed by a 16-hour incubation of RFPECs in regular BSA-containing media. In self-recovery experiments, RFPEC GCX was left to recover for 24 hours after enzyme degradation. The time frame was chosen in accordance with the 20-hour time period that is required for HS restoration to occur on the surface of ECs. For HS recovery experiments, exogenous HS and/or S1P were applied for 16 hours to accommodate the communication test as an assessment of functional glycocalyx recovery. […] After HS was degraded with HepIII, it was replaced by a 16-hour feeding of RFPECs with 59 μg/ml exogenous porcine mucosal HS (Celsus, Cincinnati, Ohio), based on published serum concentration of HS [43]. In sphingosine-1-phosphate experiments, culture media containing enzyme was substituted for media containing either 10 μM of S1P (Sigma-Aldrich) or a combination of 59 μg/ml of HS and 10 μM of S1P for 16 hours after enzyme degradation.
Immunostaining. RFPECs have high affinity to most antibodies that are available for performing immunocytochemistry. For heparan sulfate (HS), RFPEC monolayers were treated with 2% paraformaldehyde/1% glutaraldehyde in phosphate buffered saline (PBS) for fixation, treated with 2% goat serum in PBS to block non-specific ligands, and stained for three nights at 4° C. with a 1:100 10E4-epitope HS antibody (Amsbio).
As specified by the manufacturer, the HS antibody reacts with many types of heparan sulfate. The reactivity of the HS antibody is abolished after treatment with Hep III, indicating antibody specificity. […]

The subject of test [2] is Cx-containing gap junctions of RFPEC. Kind of test: Lucifer Yellow scratch-loading dye transfer assay (gap junction communication). In kind it is cell-based, rat. Here is the method: as §1, §2
Dye transfer assay, fluorescence microscopy and image analysis. Gap junction functionality was assessed by loading Lucifer Yellow in RFPECs, using a scratch technique, and observing the extent of Lucifer Yellow transfer from loaded cells to neighboring cells (FIG. 7B). Lucifer Yellow has a molecular weight of 457.3 and can only enter cells via broken membranes or via gap junctions. The scratch loading technique involved pre-incubation of RFPECs (for 1 minute) with calcium- and magnesium-free Hanks' Balanced Salt Solution (HBSS; Life Technology) containing 5 mg/ml Lucifer Yellow dye (Life Technology). A 5-μm diameter tip scribe (Ted Pella, Inc, USA) was then used to carefully create a straight scratch in the RFPEC monolayer and to allow the dye to enter the scratched cells. After the dye was loaded, it spread via open gap junctions to adjacent intact cells, with the extent of Lucifer Yellow spread reaching a plateau by 10 minutes after loading. At that point, excess dye was washed out and RFPECs were imaged at 10× magnification (dry objective) using a Zeiss Observer Z1 fluorescence microscope. From recorded images of dye transfer after scratch loading, ImageJ randomly selected dye spread locations that would be quantified along the scratch. At those random locations, lines perpendicular to the scratch axis were drawn, and the intact fluorescent cells (scratched cells excluded) were counted. […]

As to heparan sulfate [HS], the “HS expression in GCX, result in words (FIG. 2 legend)” value in test [1] (25 μIU/ml Hep III, HS 59 μg/ml, S1P 10 μM) is listed as “significant recovery of HS back to baseline conditions”. Further, in test [1] (RFPEC, Hep III 2 hours, probed 16 hours after, with or without 59 μg/ml exogenous HS and/or 10 μM S1P for the 16 hours, mean±SEM), the “HS coverage of cell surfaces” value was 65.58±2.26%. Also, in test [2] (RFPEC, Hep III, then 16 h with or without 59 μg/ml HS and/or 10 μM S1P, mean±SEM), the “Lucifer Yellow dye spread, neighboring cells receiving dye per scratch-loaded cell” value came to 1.03±0.07 cells. In test [2] (after Hep III, HS 59 μg/ml, S1P 10 μM), the “Lucifer Yellow dye transfer, result in words (FIG. 4 legend)” value was “Not much Lucifer Yellow dye transfer improvement”.
